A short description of series [1]: UV filtering parameters of cosmetic formulation on PMMA plates (modified Diffey-Robson). The class given is physicochemical.
For the next series, the system named is Microsporum gypseum. Briefly: Antidermatophyte plaque growth inhibition. The class given is cell-based. Conditions: Nannizzia gypsea; for inhibition at 100 µg/mL: read-out: Percent growth inhibition.
Another series deals with Microsporum canis. Nature of the series: Antidermatophyte plaque growth inhibition. Type of series: cell-based. Conditions: for inhibition at 100 µg/mL: read-out: Percent growth inhibition.
Series [2] concerns Trichophyton mentagrophytes. Nature of the series: Antidermatophyte plaque growth inhibition. The class given is cell-based. Conditions: for inhibition at 100 µg/mL: read-out: Percent growth inhibition.
Another series relates to Trichophyton tonsurans. Nature of the series: Antidermatophyte plaque growth inhibition. The class given is cell-based. Conditions: for inhibition at 100 µg/mL: read-out: Percent growth inhibition.
A further series relates to Epidermophyton floccosum. Nature of the series: Antidermatophyte plaque growth inhibition. Type of series: cell-based. Conditions: for inhibition at 100 µg/mL: read-out: Percent growth inhibition.
The test system of series [3] is M. gypseum, M. canis, T. mentagrophytes, T. tonsurans and E. floccosum. Nature of the series: Antidermatophyte activity, all five dermatophytes taken together. Type of series: cell-based.
The subject of series [4] is herpes simplex virus-1 (KOS). Nature of the series: Antiviral activity in HEL cell cultures (CPE, MTS). The class given is cell-based. Conditions: Human alphaherpesvirus 1, HEL cells.
Series [5] has as its system herpes simplex virus-2 (G). Nature of the series: Antiviral activity in HEL cell cultures (CPE, MTS). Type of series: cell-based. Conditions: Human alphaherpesvirus 2; Herpes simplex virus-2, HEL cells.
For series [6], the system named is herpes simplex virus-1 TK-KOS ACVr. Briefly: microbe, parasite or virus in culture. The class given is cell-based. Conditions: Human alphaherpesvirus 1, HEL, read-out: Antiviral EC50.
The test system of another series is vaccinia virus. Nature of the series: microbe, parasite or virus in culture. The class given is cell-based. Conditions: Orthopoxvirus vaccinia, HEL, read-out: Antiviral EC50.
The next series relates to Adeno virus-2. Briefly: Antiviral activity in HEL cell cultures (CPE, MTS). Conditions: Adeno virus-2, HEL cells. The class given is cell-based.
The test system of a further series is Human Coronavirus (229E). Nature of the series: microbe, parasite or virus in culture. The class given is cell-based. Conditions: HEL, read-out: Antiviral EC50.
Series [7] has as its system vesicular stomatitis virus. Briefly: microbe, parasite or virus in culture. Conditions: HeLa, read-out: Antiviral EC50. The class given is cell-based.
In a further series the test system is Coxsackie virus B4. Briefly: Antiviral activity in HeLa cell cultures (CPE, MTS). The class given is cell-based. Conditions: Enterovirus B; Coxsackie virus B4, HeLa cells.
The test system of series [8] is Respiratory syncytial virus. Nature of the series: microbe, parasite or virus in culture. Conditions: human respiratory syncytial virus, HeLa cells, read-out: Antiviral EC50. The class given is cell-based.
Series [9] deals with human embryonic lung (HEL) cell cultures.
The test system of the next series is HeLa cell cultures. Conditions: human.
The nature of series [10]: DPPH radical scavenging test. Conditions: mean ± SEM. Background: The DPPH test is a chemical assay of radical scavenging.
The subject of series [11] is human T-lymphocyte cells (CEM). Briefly: Cell proliferation inhibition.
For series [12], the system named is human cervical carcinoma cells (HeLa). Nature of the series: Cell proliferation inhibition.
The test system of series [13] is human pancreatic carcinoma cells (Mia Paca-2). Nature of the series: Cell proliferation inhibition.
The subject of series [14] is human melanoma cells (SK-Mel 5). Nature of the series: Cell proliferation inhibition.
A short description of series [15]: Ferric reducing antioxidant power (FRAP) test. Conditions: mean ± SEM.
Series [16] has as its system HEK293T (Normal Kidney Epithelial Cells). Briefly: Cell proliferation inhibition, non-cancer control cells. Conditions: Homo sapiens, HEK-293T.
Series [17] can be described thus: UV filtering parameters of compounds in solution (MeOH, 290-400 nm).
[18] abbreviates: M. gypseum, 100 µg/mL, '+' has no key.
Where [19] appears, read: M. canis, 100 µg/mL, '+' has no key.
Setting [20] is: T. mentagrophytes, 100 µg/mL, '+' has no key.
The mark [21] stands for this setting: T. tonsurans, 100 µg/mL, '+' has no key.
The mark [22] stands for this setting: E. floccosum, 100 µg/mL, '+' has no key.

SMILES strings stand for the structures. ≈ marks a conversion by molar mass, not a printed value. Where two headings read alike, the source gives them in different places.

For orientation: IC50 means the concentration that inhibits the measured activity by half. One may read the inhibition as the share of the control response that was lost under treatment. What is called EC50 is the concentration that produces a half-maximal response. In general, melting point refers to the temperature of the solid-liquid transition.

In the case of `c1csc(-c2nc3ccccc3[nH]2)c1` [Compound 12, 2-(thiophen-2-yl)-1H-benzimidazole], the SPF in [1] (1% in formulation) was 2.41; in [1] (2% in formulation), 2.59; in series [1] (3% in formulation), 2.79. Moreover, the UVA/UVB in series [1] (1% in formulation) is given as 0.71; in series [1] (2% in formulation), 0.70; in series [1] (3% in formulation), 0.69; in [17], 0.37. The UVAPF came to 1.16 in [1] (1% in formulation), 1.22 in [1] (2% in formulation), 1.26 in [1] (3% in formulation) and 1.49±0.07 in series [17]. For the same molecule, the figures for the λc in [1] (1% in formulation), in series [1] (2% in formulation) and in [1] (3% in formulation) were 340 nm, 342 nm and 344 nm, respectively. Besides, the IC50 in the series with Microsporum gypseum (M. gypseum growth, read-out: IC50) was 1.55 ± 0.03 µg/mL (≈ 7.74 µM); in the series with Microsporum canis (M. canis growth, read-out: IC50), 2.14 ± 0.09 µg/mL (≈ 10.7 µM); in series [2] (T. mentagrophytes growth, read-out: IC50), 1.74 ± 0.11 µg/mL (≈ 8.69 µM); in the series on Trichophyton tonsurans (T. tonsurans growth, read-out: IC50), 2.42 ± 0.15 µg/mL (≈ 12.1 µM); in the series with Epidermophyton floccosum (E. floccosum growth, read-out: IC50), 3.8 ± 0.07 µg/mL (≈ 19 µM); in series [3] (all five dermatophytes, read-out: IC50 range over the five dermatophytes), 0.97 to 3.8 µg/mL (≈ 4.84 to 19 µM). In addition, the IC50 in series [11] is above 100 µM; in series [12], above 100 µM; in series [13] it was at least 100 µM; in series [14], 86 ± 17 µM; in [16], above 100 µM. The inhibition at 100 µg/mL with Microsporum gypseum (setting [18]) is 100 ± 1.63%; with Microsporum canis (setting [19]), 92.9 ± 1.33%; in [2] (setting [20]) it was 98.1 ± 2.76%; in the series with Trichophyton tonsurans (setting [21]), 97 ± 1.34%; in the series with Epidermophyton floccosum (setting [22]) it was 94.7 ± 5.45%; in [3] (100 µg/mL, all five dermatophytes, read-out: Percentage of growth inhibition over the five dermatophytes), around 100%. In addition, the “Activity on dermatophytes (in words)” value in series [3] (100 µg/mL) was “fungicide activity”. The EC50 (in series [4]; in [5]; in [6]; in the series with vaccinia virus; in the series with Adeno virus-2; with Human Coronavirus (229E)) was above 100 µM in each case. Besides, the EC50 (in [7]; in the series on Coxsackie virus B4; in series [8]) was above 100 µM in each case. Also, the Cytotoxic concentration (in series [9]; with HeLa cell cultures) was above 100 µM each time. In addition, in series [10] (tested at 1 mg/mL), the “DPPH (% Inhibition)” value stood at 35.05 ± 0.87%. The same molecule returned an FRAP in series [15] of 75.89 ± 5.43 µmolTE/g. The “λc (critical wavelength)” value in series [17] was 345 nm.
In the case of `Nc1ccn(C[C@@H](CO)OCP(=O)(O)O)c(=O)n1` [Cidofovir, reference compound], the EC50 in series [4] was found to be 4.5 µM; in series [5] it was 3.4 µM; in series [6], 2.8 µM; in the series on vaccinia virus, 50 µM; in the series with Adeno virus-2, 10 µM. Also, in series [9], the Cytotoxic concentration is recorded as above 250 µM.
Take `O=C(O)/C=C/c1ccc(O)c(O)c1` [Caffeic acid, reference compound]: the “DPPH (% Inhibition)” value in [10] (tested concentration 0.0105 mg/mL) is 81.35 ± 0.35%. In addition, the FRAP in series [15] is on record as 10156.12 ± 15.5 µmolTE/g.
On to `Nc1nc(O)c2ncn(COC(CO)CO)c2n1` [Ganciclovir, reference compound], for which the concentration for a half-maximal effect (EC50) is 0.01 µM in [4], 0.01 µM in [5], 0.2 µM in series [6] and above 100 µM in the series with vaccinia virus. In series [9], this molecule registered a Cytotoxic concentration above 250 µM.
The molecule `O=C(O)c1ccc2[nH]c(-c3ccc[nH]3)nc2c1` [Compound 13, 2-(1H-pyrrol-2-yl)-1H-benzimidazole-5-carboxylic Acid] had a melting point above 250 °C. In addition, the inhibition at 100 µg/mL in the series with Microsporum gypseum (setting [18]) was found to be 3.74 ± 1.49%. Also, the inhibition at 100 µg/mL in the series with Microsporum canis (setting [19]) came to 8.66 ± 1.78%. The inhibition at 100 µg/mL in [2] (setting [20]) was below 0%. Further, in the series on Trichophyton tonsurans (setting [21]), the inhibition at 100 µg/mL was 4.55 ± 1.34%. The inhibition at 100 µg/mL with Epidermophyton floccosum (setting [22]) came out at 21.1 ± 2.14%. Further, the EC50 in [4] is above 100 µM. This molecule gave an EC50 in series [5] above 100 µM. Besides, the EC50 in [6] was above 100 µM. Further, the EC50 in the series on vaccinia virus was above 100 µM. Moreover, in the series on Adeno virus-2, the EC50 is above 100 µM. Besides, the EC50 in the series on Human Coronavirus (229E) is above 100 µM. Also, the EC50 in series [7] was above 100 µM. The EC50 in the series on Coxsackie virus B4 was above 100 µM. The EC50 in series [8] is above 100 µM. Besides, the Cytotoxic concentration in [9] is on record as above 100 µM. Further, in the series on HeLa cell cultures, the Cytotoxic concentration is reported as above 100 µM. In [10] (tested at 1 mg/mL), the “DPPH (% Inhibition)” value is 33.00 ± 1.28%. The molecule further returned an IC50 in [11] above 100 µM. The IC50 in series [12] is above 100 µM. The molecule further yielded an IC50 in series [13] above 100 µM. Also, the IC50 in series [14] was above 100 µM. Further, the FRAP in [15] was 108.89 ± 2.98 µmolTE/g. Moreover, the IC50 in [16] is above 100 µM. In [17], the SPF amounted to 7.40±0.23, the UVA/UVB is 0.7, the UVAPF was 1.10±0.09 and the “λc (critical wavelength)” value is given as 345 nm.
Take `O=S(=O)(O)c1ccc2[nH]c(-c3ccccc3)nc2c1` [PBSA, 2-phenyl-1H-benzimidazole-5-sulphonic acid, reference compound]: the SPF in series [1] (1% in formulation) worked out at 3.22; in series [1] (2% in formulation), 4.63; in series [1] (3% in formulation) it was 5.09; in series [17], 3.40±0.17. Also, the UVA/UVB in series [1] (1% in formulation) came to 0.33; in series [1] (2% in formulation), 0.22; in series [1] (3% in formulation) it was 0.25; in [17] it was 0.29. For the same molecule, the UVAPF stood at 0.94 in series [1] (1% in formulation), 0.94 in series [1] (2% in formulation), 1.02 in series [1] (3% in formulation) and 1.03±0.08 in series [17]. Further, the λc turned out to be 319 nm in series [1] (1% in formulation), 321 nm in series [1] (2% in formulation) and 324 nm in series [1] (3% in formulation). For the same molecule, the inhibition at 100 µg/mL is 9.62 ± 0.61% with Microsporum gypseum; below 0% with Microsporum canis; below 0% in series [2]; below 0% in the series with Trichophyton tonsurans; 7.41 ± 0.43% with Epidermophyton floccosum. Further, in [3] (100 µg/mL), the “Activity on dermatophytes (in words)” value is “no activity on dermatophytes”. Besides, the “DPPH (% Inhibition)” value in [10] (tested at 1 mg/mL) was “<LOQ *”. For the same molecule, in series [15], the FRAP result is given as “<LOQ *”. The “λc (critical wavelength)” value in series [17] is given as 322 nm.
`Nc1nc2c(ncn2COCCO)c(=O)[nH]1` [Acyclovir, reference compound]: the EC50 is 0.6 µM in [4], 0.6 µM in series [5], 2 µM in [6] and above 250 µM in the series with vaccinia virus. In [9], this molecule displayed a Cytotoxic concentration above 250 µM.
Consider `O=c1[nH]c(=O)n([C@H]2C[C@H](O)[C@@H](CO)O2)cc1/C=C/Br` [Birivudin, Brivudin, reference compound], for which the EC50 worked out at 0.01 µM in series [4], 0.1 µM in [6] and 5.8 µM in the series with vaccinia virus. The Cytotoxic concentration in [9] was above 250 µM.
Turning to `NC(=O)c1ncn([C@@H]2O[C@H](CO)[C@@H](O)[C@H]2O)n1` [Ribaravin, ribavirin, reference compound], the results for the EC50 (in series [7]; in the series on Coxsackie virus B4; in series [8]) were 112 µM, 250 µM and 10 µM, respectively.

The record behind these values is article PMC7570844, “Skin Damages—Structure Activity Relationship of Benzimidazole Derivatives Bearing a 5-Membered Ring System” (Molecules, 2020).
